Experimental data: patent publication US5985910A, “3- [4- (2- Phenyl-Indole-1-ylmethyl) Phenyl]- Acrylamides as estrogenic agents” (priority 1997, dated 1999)

Tests used:
Ishikawa cells = test: Ishikawa Cell Alkaline Phosphatase Assay; format: cell-based, human; conditions: for % Activation (Compound ± 1 nM 17β-estradiol) (alkaline phosphatase): 10^-6 M compound + 1 nM 17β-estradiol, 48 h (antiestrogen test); for % Activation (alkaline phosphatase): compound alone, 48 h, percent of response related to 1 nM 17β-estradiol
Procedure: Ishikawa Cell Alkaline Phosphatase Assay
(§1) Cell Maintenance and Treatment
Ishikawa cells were maintained in DMEM/F12 (50%:50%) containing phenol red+10% fetal bovine serum and the medium was supplemented with 2 mM Glutamax, 1% Pen/Strap and 1 mM sodium pyruvate. Five days prior to the beginning of each experiment (treatment of cells) the medium was changed to phenol red-free DMEM/F12+10% dextran coated charcoal stripped serum. On the day before treatment, cells were harvested using 0.5% trypsin/EDTA and plated at a density of 5×10^4 cells/well in 96-well tissue culture plates. […] Cells were treated for 48 h prior to assay. […] Sample population for at each dose was n=8.
Alkaline Phosphatase Assay
At the end of 48 h the media is aspirated and cells are washed three times with phosphate buffered saline (PBS). 50 μL of lysis buffer (0.1 M Tris-HCl, pH 9.8, 0.2% Triton X-100) is added to each well. Plates are placed at -80° C. for a minimum of 15 minutes. Plates are thawed at 37° C. followed by the addition of 150 μL of 0.1 M Tris-HCl, pH 9.8, containing 4 mM para-nitrophenylphosphate (pNPP) to each well (final concentration, 3 mM pNPP).
Absorbance and slope calculations were made using the KineticCalc Application program (Bio-Tek Instruments, Inc., Winooski, Vt.). Results are expressed as the mean +/-S.D. of the rate of enzyme reaction (slope) averaged over the linear portion of the kinetic reaction curve (optical density readings every 5 minutes for 30 minutes absorbance reading).
Various compounds were assayed for estrogenic activity by the alkaline phosphatase method and corresponding ED50 values (95% C.I.) were calculated. The four listed in the following were used as reference standards:
A description of such methods is provided by Holinka, C. F., Hata, H., Kuramoto, H. and Gurpide, E. (1986) Effects of steroid hormones and antisteroids on alkaline phosphatase activity in human endometrial cancer cells (Ishikawa Line). Cancer Research, 46:2771-2774, and by Littlefield, B. A., Gurpide, E., Markiewicz, L., McKinley, B. and by Hochberg, R. B. (1990) A simple and sensitive microtiter plate estrogen bioassay based on stimulation alkaline phosphatase in Ishikawa cells; Estrogen action of D5 adrenal steroids. Endocrinology, 6:2757-2762.

estrogen receptor [1] = target: T1, estrogen receptor (Homo sapiens, UniProt P03372); test: In Vitro Estrogen Receptor Binding Assay ([3H]-17β-estradiol competition, cytosol of CHO cells overexpressing the estrogen receptor); parameters: made in house; host or cells: CHO cells overexpressing the receptor; 100,000 g cytosol
T1 sequence (P03372 1-595): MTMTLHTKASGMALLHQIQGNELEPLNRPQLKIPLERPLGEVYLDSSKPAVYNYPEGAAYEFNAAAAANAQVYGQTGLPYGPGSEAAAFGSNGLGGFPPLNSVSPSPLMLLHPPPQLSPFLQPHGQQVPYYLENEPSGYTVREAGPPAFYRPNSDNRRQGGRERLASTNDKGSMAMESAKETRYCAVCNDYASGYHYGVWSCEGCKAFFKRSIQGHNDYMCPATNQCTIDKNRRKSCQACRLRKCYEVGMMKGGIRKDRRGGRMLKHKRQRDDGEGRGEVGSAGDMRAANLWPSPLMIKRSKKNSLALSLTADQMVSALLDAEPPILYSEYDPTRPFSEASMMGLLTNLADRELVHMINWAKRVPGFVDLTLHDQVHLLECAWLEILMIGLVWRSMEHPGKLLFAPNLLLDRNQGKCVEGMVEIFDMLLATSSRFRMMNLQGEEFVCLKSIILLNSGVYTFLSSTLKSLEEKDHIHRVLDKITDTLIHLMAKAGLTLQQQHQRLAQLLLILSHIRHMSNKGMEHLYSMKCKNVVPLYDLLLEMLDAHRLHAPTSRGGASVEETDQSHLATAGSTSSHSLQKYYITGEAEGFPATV
Procedure: In Vitro Estrogen Receptor Bonding Assay
CHO cells overexpressing the estrogen receptor were grown in 150 mm^2 dishes in DMEM+10% dextran coated charcoal, stripped fetal bovine serum. The plates were washed twice with PBS and once with 10 mM Tris-HCl, pH 7.4, 1 mM EDTA. Cells were harvested by scraping the surface and then the cell suspension was placed on ice. Cells were disrupted with a hand-held motorized tissue grinder using two, 10-second bursts. […] The cytosol was then frozen and stored at -80° C. Protein concentration of the cytosol was estimated using the BCA assay with reference standard protein.
100 uG/100 uL of the receptor preparation was aliquoted per well. […] The plate was incubated at room temperature for 2.5 h. […] 200 uL of the supernatant solution was then removed for scintillation counting. Samples were counted to 2% or 10 minutes, whichever occurs first. […] Also, wells containing radioactivity but no cytosol were processed with charcoal to estimate unremovable DPM of [^3 H] […].
Counts per minute (CPM) of radioactivity were automatically converted to disintegrated per minute (DPM) by the Beckman LS 7500 Scintillation Counter using a set of quenched standards to generate a H# for each sample.
((DPM sample-DPM not removed by charcoal)/(DPM estradiol-DPM not removed by charcoal))×100%=% of estradiol binding
For the generation of IC50 curves, % binding is plotted vs compound. […] For a description of these methods, see Hulme, E. C., ed. […] Receptor-Ligand Interactions: A Practical Approach. IRL Press, New York (see especially chapter 8).

estrogen receptor [2] = target: T1, estrogen receptor; test: 2X VIT ERE Transfection (luciferase) Assay in CHO cells; format: cell-based; parameters: expressed in transfected cells; host or cells: Chinese Hamster Ovary (CHO) cells, stably transfected; conditions: for % Activation with 1 nM 17β-estradiol (luciferase): 1 uM compound + 1 nM 17β-estradiol, 24 h (antagonism); for activation at 1 µM: CHO, 24 h
Procedure: 2X VIT ERE Transfection Assay
as §1
Chinese Hamster Ovary cells (CHO) which had been stably transfected with the human estrogen receptor were maintained in DMEM+10% fetal bovine serum (FBS). 48 h prior to treatment the growth medium was replaced with DMEM lacking phenol red +10% dextran coated charcoal stripped FBS (treatment medium). Cells were plated at a density of 5000 cells/well in 96-well plates containing 200 μL of medium/well.
Calcium Phoshate Transfection
Reporter DNA (Promega plasmid pGL2 containing two tandem copies of the vitellogenin ERE in front of the minimal thymidine kinase promoter driving the luciferase gene) was combined with the B-galactosidase expression plasmid pCH110 (Pharmacia) and carrier DNA (pTZ18U) in the following ratio:
20 uL of this mixture was added to each well of cells and remained on the cells for 16 h. […] Each treatment condition was performed on 8 wells (n=8) which were incubated for 24 h prior to the luciferase assay.
After removing the PBS, 25 uL of Promega lysis buffer was added to each well and allowed to stand at room temperature for 15 min, followed by 15 min at -80° C. and 15 min at 37° C. 20 uL of lysate was transferred to an opaque 96 well plate for luciferase activity evaluation and the remaining lysate (5 uL) was used for the B-galactosidase activity evaluation (normalize transfection). The luciferan substrate (Promega) was added in 100 uL aliquots to each well automatically by the luminometer and the light produced (relative light units) was read 10 seconds after addition.
To the remaining 5 uL of lysate 45 uL of PBS was added. Then 50 uL of Promega B-galactosidase 2× assay buffer was added, mixed well and incubated at 37° C. for 1 hour. A plate containing a standard curve (0.1 to 1.5 milliunits in triplicate) was set up for each experimental run. The plates were analyzed on a Molecular Devices spectrophotometric plate reader at 410 nm. The optical densities for the unknown were converted to milliunits of activity by mathematical extrapolation from the standard curve.
The luciferase data was generated as relative light units (RLUs) accumulated during a 10 second measurement and automatically transferred to a JMP (SAS Inc) file where background RLUs were subtracted. The B-galactosidase values were automatically imported into the file and these values were divided into the RLUs to normalize the data. The mean and standard deviations were determined from a n=8 for each treatment. […] These techniques are described by Tzukerman, M. T., Esty, A., Santiso-Mere, D., Danielian, P., Parker, M. G., Stein, R. B., Pike, J. W. and McDonnel, D. P. (1994). Human estrogen receptor transactivational capacity was determined by both cellular and promoter context and mediated by two functionally distinct intramolecular regions (see Molecular Endocrinology, 8:21-30).

uteri = test: Rat Uterotrophic/Antiuterotrophic Bioassay (results headed 3-Day Ovariectomized Rat Model); format: in vivo, rat (Sprague-Dawley); conditions: 1 μG; Example 12 experiment, control = 31.4 mg
Procedure: Rat Uterotrophic/Antiuterotrophic Bioassay
Immature Sprague-Dawley rats (female, 18 days old) were tested in groups of six. […] On day 4 the animals were sacrificed by CO2 asphyxiation and their uteri were removed and stripped of excess lipid, any fluid removed and the wet weight determined. A small section of one horn was submitted for histology and the remainder used to isolate total RNA in order to evaluate complement component 3 gene expression.

Row | SMILES | % Activation (Compound ± 1 nM 17β-estradiol) (alkaline phosphatase) (Ishikawa cells) [%] | % Activation (alkaline phosphatase) (Ishikawa cells) [%] | Estrogen Receptor Affinity (RBA) (estrogen receptor [1]) | % Activation with 1 nM 17β-estradiol (luciferase) (estrogen receptor [2]) [%] | activation at 1 µM (estrogen receptor [2]) [%] | uterine wet weight, 1 μG 17β-estradiol (uteri) [mg]
1 | Cc1c(-c2ccc(O)cc2)n(Cc2ccc(/C=C/C(=O)NC(C)(C)C)cc2)c2ccc(O)cc12 [Example 8, 1(E)-N-tert-butyl-3-{4-[5-hydroxy-2-(4-hydroxy-phenyl)-3-methyl-indol-1-ylmethyl]-phenyl}-acrylamide] | 22 | 10 | 40 | 78 | 6 | –
2 | CCN(CC)C(=O)/C=C/c1ccc(Cn2c(-c3ccc(O)cc3)c(C)c3cc(O)ccc32)cc1 [Example 7, (E)-N,N-Diethyl-3-{4-[5-hydroxy-2-(4-hydroxy-phenyl)-3-methyl-indol-1-ylmethyl]-phenyl}-acrylamide] | 9 | 1 | 42 | 8 | 4 | –
3 | CNC(=O)/C=C/c1ccc(Cn2c(-c3ccc(O)cc3)c(C)c3cc(O)ccc32)cc1 [Example 15, (E)-N,Methyl-3-{4-[5-hydroxy-2-(4-hydroxy-phenyl)-3-methyl-indol-1-ylmethyl]-phenyl}-acrylamide] | 5 | 0 | 53 | 31 | 15 | –
4 | C[C@]12CC[C@@H]3c4ccc(O)cc4CC[C@H]3[C@@H]1CC[C@@H]2O [17β-estradiol, reference compound] | – | – | – | – | – | 89.0
5 | Cc1c(-c2ccc(O)cc2)n(Cc2ccc(/C=C/C(N)=O)cc2)c2ccc(O)cc12 [Example 14, (E)-3-{4-[5-hydroxy-2-(4-hydroxy-phenyl)-3-methyl-indol-1-ylmethyl]-phenyl}-acrylamide] | 14 | 2 | 32 | 57 | 19 | –
6 | Cc1c(-c2ccc(O)cc2)n(Cc2ccc(/C=C/C(=O)N3CCOCC3)cc2)c2ccc(O)cc12 [Example 13] | 9 | 7 | – | 17 | 8 | –
7 | CCCCN(C)C(=O)/C=C/c1ccc(Cn2c(-c3ccc(O)cc3)c(C)c3cc(O)ccc32)cc1 [Example 12, (E)-N-Butyl. N'-methyl-3-{4-[5-hydroxy-2-(4-hydroxy-phenyl)-3-methyl-indol-1-ylmethyl]-phenyl}-acrylamide] | 16 | 7 | 114 | 24 | 13 | –
8 | Cc1c(-c2ccc(O)cc2)n(Cc2ccc(/C=C/C(=O)N(C)C)cc2)c2ccc(O)cc12 [Example 10, (E)-N,N-Dimethyl-3-{4-[5-hydroxy-2-(4-hydroxy-phenyl)-3-methyl-indol-1-ylmethyl]-phenyl}-acrylamide] | 19 | 6 | 20 | 2 | 1 | –
9 | Cc1c(-c2ccc(O)cc2)n(Cc2ccc(/C=C/C(=O)N3CCCC3)cc2)c2ccc(O)cc12 [Example 9, (E)-Pyrrolidino-3-{4-[5-hydroxy-2-(4-hydroxy-phenyl)-3-methyl-indol-1-ylmethyl]-phenyl}-acrylamide] | 11 | 3 | – | 8 | 6 | –
